Patent publication US7273885B2, “Inhibitors of serine proteases, particularly HCV NS3-NS4A protease” (Vertex Pharmaceuticals Incorporated, priority 2002, dated 2007)
Read-outs that look alike come from different tables or passages of the source. *1 amine or outer side, *2 acyl side, *3 side chain or, on linkers, in order; H or OH if unused. Where a SMILES comes first, the peptide text is derived from it. [ ]: non-standard residue; d: D form. The star is where a group is joined. Oic = O=C(O)[C@@H]1C[C@@H]2CCCC[C@@H]2N1; X2 = CCC[C@H](N[*:1])C(=O)C(=O)[*:2]; Chg = N[C@H](C(=O)O)C1CCCCC1; Tle = CC(C)(C)[C@H](N)C(=O)O; Hiv = CC(C)[C@H](O)C(=O)O; NHcPr = C1CC1N*

Legend:
[1] = molecular target: HCV NS3-NS4A protease (tNS3 with KK4A) (Hepatitis C virus genotype 1a, UniProt P27958); assay: HCV Ki assay (HPLC microbore separation of 5AB substrate and products); format: biochemical
Protocol: HPLC Microbore Method for Separation of 5AB Substrate and Products
• Substrate: • NH2-Glu-Asp-Val-Val-(alpha)Abu-Cys-Ser-Met-Ser-Tyr-COOH
A stock solution of 20 mM 5AB (or concentration of your choice) was made in DMSO w/ 0.2M DTT. This was stored in aliquots at −20 C.
Buffer: 50 mM HEPES, pH 7.8; 20% glycerol; 100 mM NaCl
Total assay volume was 100 μL
The buffer, KK4A, DTT, and tNS3 were combined; distributed 78 μL each into wells of 96 well plate. This was incubated at 30 C for ˜5–10 min.
2.5 μL of appropriate concentration of test compound was dissolved in DMSO (DMSO only for control) and added to each well. This was incubated at room temperature for 15 min.
Initiated reaction by addition of 20 μL of 250 μM 5AB substrate (25 μM concentration is equivalent or slightly lower than the Km for 5AB).
Incubated for 20 min at 30 C.
Terminated reaction by addition of 25 μL of 10% TFA
Transferred 120 μL aliquots to HPLC vials
Separated SMSY product from substrate and KK4A by the following method:
Microbore Separation Method:
Instrumentation: Agilent 1100
• Degasser G1322A • Binary pump G1312A • Autosampler G1313A • Column thermostated chamber G1316A • Diode array detector G1315A Column:
Phenomenex Jupiter; 5 micron C18; 300 angstroms; 150×2 mm; P/O 00F-4053-B0 • Column thermostat: 40 C • Injection volume: 100 μL • Solvent A=HPLC grade water+0.1% TFA • Solvent B=HPLC grade acetonitrile+0.1% TFA
• Stop time: 17 min • Post-run time: 10 min.

[2] = system: Cells containing hepatitis C virus (HCV) replicon; assay: HCV replicon cell assay (Taqman RT-PCR of HCV RNA); format: cell-based
Protocol: HCV Replicon Cell Assay Protocol
Cells containing hepatitis C virus (HCV) replicon were maintained in DMEM containing 10% fetal bovine serum (FBS), 0.25 mg per ml of G418, with appropriate supplements (media A).
On day 1, replicon cell monolayer was treated with a trypsin:EDTA mixture, removed, and then media A was diluted into a final concentration of 100,000 cells per ml wit. 10,000 cells in 100 ul were plated into each well of a 96-well tissue culture plate, and cultured overnight in a tissue culture incubator at 37° C.
On day 2, compounds (in 100% DMSO) were serially diluted into DMEM containing 2% FBS, 0.5% DMSO, with appropriate supplements (media B). The final concentration of DMSO was maintained at 0.5% throughout the dilution series.
Media on the replicon cell monolayer was removed, and then media B containing various concentrations of compounds was added. Media B without any compound was added to other wells as no compound controls.
Cells were incubated with compound or 0.5% DMSO in media B for 48 hours in a tissue culture incubator at 37° C. At the end of the 48-hour incubation, the media was removed, and the replicon cell monolayer was washed once with PBS and stored at −80° C. prior to RNA extraction.
Culture plates with treated replicon cell monolayers were thawed, and a fixed amount of another RNA virus, such as Bovine Viral Diarrhea Virus (BVDV) was added to cells in each well. RNA extraction reagents (such as reagents from RNeasy kits) were added to the cells immediately to avoid degradation of RNA. Total RNA was extracted according the instruction of manufacturer with modification to improve extraction efficiency and consistency. Finally, total cellular RNA, including HCV replicon RNA, was eluted and stored at −80° C. until further processing.
A Taqman real-time RT-PCR quantification assay was set up with two sets of specific primers and probe. One was for HCV and the other was for BVDV. Total RNA extractants from treated HCV replicon cells was added to the PCR reactions for quantification of both HCV and BVDV RNA in the same PCR well. Experimental failure was flagged and rejected based on the level of BVDV RNA in each well. The level of HCV RNA in each well was calculated according to a standard curve run in the same PCR plate. The percentage of inhibition or decrease of HCV RNA level due to compound treatment was calculated using the DMSO or no compound control as 0% of inhibition. The IC50 (concentration at which 50% inhibition of HCV RNA level is observed) was calculated from the titration curve of any given compound.

[3] = 50% inhibition of HCV RNA level, 48-hour incubation, HCV replicon cells, read-out: IC50

HCV NS3-NS4A protease (tNS3 with KK4A), sequence (P27958 1027-1208): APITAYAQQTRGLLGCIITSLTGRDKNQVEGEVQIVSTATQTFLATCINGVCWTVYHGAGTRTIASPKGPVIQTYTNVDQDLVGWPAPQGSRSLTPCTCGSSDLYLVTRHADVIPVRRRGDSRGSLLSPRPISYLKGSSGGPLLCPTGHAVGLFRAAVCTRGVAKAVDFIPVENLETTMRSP

Compound: CCC[C@H](NC(=O)[C@@H]1C[C@@H]2CCCC[C@@H]2N1C(=O)[C@@H](NC(=O)[C@@H](NC(=O)c1cc2cc(F)ccc2[nH]1)C1CCCCC1)C(C)(C)C)C(=O)C(=O)NC1CC1 [Compound 18a]
- Ki [1]: < 500 nM
- IC50 [2, 3]: < 500 nM

Compound: CCC[C@H](NC(=O)[C@@H]1C[C@@H]2CCCC[C@@H]2N1C(=O)[C@@H](NC(=O)[C@@H](NC(=O)[C@@](C)(O)c1ccccc1)C1CCCCC1)C(C)(C)C)C(=O)C(=O)NC1CC1 [Compound 19a]
- Ki [1]: < 500 nM
- IC50 [2, 3]: 500 to 1000 nM

Compound: CCC[C@H](NC(=O)[C@@H]1C[C@@H]2CCCC[C@@H]2N1C(=O)[C@@H](NC(=O)[C@@H](NC(=O)[C@](C)(O)c1ccccc1)C1CCCCC1)C(C)(C)C)C(=O)C(=O)NC1CC1 [Compound 20a]
- Ki [1]: < 500 nM
- IC50 [2, 3]: 500 to 1000 nM

Compound: CCC[C@H](NC(=O)[C@@H]1C[C@@H]2CCCC[C@@H]2N1C(=O)[C@@H](NC(=O)[C@@H](NC(=O)C(=O)Nc1ccccc1)C1CCCCC1)C(C)(C)C)C(=O)C(=O)NC1CC1 [Compound 21a]
- Ki [1]: < 500 nM
- IC50 ([2]; 48 h): < 500 nM

Compound: CCC[C@H](NC(=O)[C@@H]1C[C@@H]2CCCC[C@@H]2N1C(=O)[C@@H](NC(=O)[C@@H](NC(=O)C1(O)CCCC1)C1CCCCC1)C(C)(C)C)C(=O)C(=O)NC1CC1 [Compound 22a]
- Ki [1]: 500 to 1000 nM
- IC50 [2, 3]: 1000 to 5000 nM

Compound: CCC[C@H](NC(=O)[C@@H]1C[C@@H]2CCCC[C@@H]2N1C(=O)[C@@H](NC(=O)[C@@H](NC(=O)[C@@H](O)C(C)C)C1CCCCC1)C(C)(C)C)C(=O)C(=O)NC1CC1 [Compound 23a] (H-[Hiv][Chg][Tle][Oic][X2]-NHcPr)
- Ki [1]: < 500 nM
- IC50 [2, 3]: 1000 to 5000 nM

Compound: CCC[C@H](NC(=O)[C@@H]1C[C@@H]2CCCC[C@@H]2N1C(=O)[C@@H](NC(=O)[C@@H](NC(=O)C(=O)C(C)C)C1CCCCC1)C(C)(C)C)C(=O)C(=O)NC1CC1 [Compound 24a]
- Ki [1]: < 500 nM
- IC50 [2, 3]: 1000 to 5000 nM

Compound: CCC[C@H](NC(=O)[C@@H]1C[C@@H]2CCCC[C@@H]2N1C(=O)[C@@H](NC(=O)[C@@H](NC(=O)c1[nH]c(C)c(C)c1C(C)=O)C1CCCCC1)C(C)(C)C)C(=O)C(=O)NC1CC1 [Compound 25a]
- Ki [1]: < 500 nM
- IC50 [2, 3]: < 500 nM

Compound: CCC[C@H](NC(=O)[C@@H]1C[C@@H]2CCCC[C@@H]2N1C(=O)[C@@H](NC(=O)[C@@H](NC(=O)c1ccoc1)C1CCCCC1)C(C)(C)C)C(=O)C(=O)NC1CC1 [Compound 26a]
- Ki [1]: < 500 nM
- IC50 [2, 3]: 1000 to 5000 nM

Compound: CCC[C@H](NC(=O)[C@@H]1C[C@@H]2CCCC[C@@H]2N1C(=O)[C@@H](NC(=O)[C@@H](NC(=O)c1ccco1)C1CCCCC1)C(C)(C)C)C(=O)C(=O)NC1CC1 [Compound 27a]
- Ki [1]: < 500 nM
- IC50 [2, 3]: 1000 to 5000 nM

Compound: CCC[C@H](NC(=O)[C@@H]1C[C@@H]2CCCC[C@@H]2N1C(=O)[C@@H](NC(=O)[C@@H](NC(=O)c1[nH]c(C)c(C(C)=O)c1C)C1CCCCC1)C(C)(C)C)C(=O)C(=O)NC1CC1 [Compound 29a]
- Ki [1]: < 500 nM
- IC50 [2, 3]: 500 to 1000 nM

Compound: CCC[C@H](NC(=O)[C@@H]1C[C@@H]2CCCC[C@@H]2N1C(=O)[C@@H](NC(=O)[C@@H](NC(=O)c1ccccn1)C1CCCCC1)C(C)(C)C)C(=O)C(=O)NC1CC1 [Compound 30a]
- Ki [1]: 500 to 1000 nM
- IC50 [2, 3]: 1000 to 5000 nM

Compound: CCC[C@H](NC(=O)[C@@H]1C[C@@H]2CCCC[C@@H]2N1C(=O)[C@@H](NC(=O)[C@@H](NC(=O)c1cccnc1)C1CCCCC1)C(C)(C)C)C(=O)C(=O)NC1CC1 [Compound 31a]
- Ki [1]: < 500 nM
- IC50 [2, 3]: 1000 to 5000 nM

Compound: CCC[C@H](NC(=O)[C@@H]1C[C@@H]2CCCC[C@@H]2N1C(=O)[C@@H](NC(=O)[C@@H](NC(=O)c1ccncc1)C1CCCCC1)C(C)(C)C)C(=O)C(=O)NC1CC1 [Compound 32a]
- Ki [1]: < 500 nM
- IC50 [2, 3]: 1000 to 5000 nM

Compound: CCCC(NC(=O)[C@@H]1C[C@@H]2CCCC[C@@H]2N1C(=O)[C@@H](NC(=O)[C@@H](NC(=O)c1[nH]c(C)c(C)c1C(C)=O)C1CCCCC1)C(C)(C)C)C(=O)C(=O)NC1CC1 (stereo partly shown) [Compound 33a]
- Ki [1]: < 500 nM
- IC50 [2, 3]: < 500 nM

Compound: CCC[C@H](NC(=O)[C@@H]1C[C@@H]2CCCC[C@@H]2N1C(=O)[C@@H](NC(=O)[C@@H](NC(=O)c1[nH]c(C)c(C(=O)c2ccccc2)c1C#N)C1CCCCC1)C(C)(C)C)C(=O)C(=O)NC1CC1 [Compound 34a]
- Ki [1]: < 500 nM
- IC50 [2, 3]: 1000 to 5000 nM

Compound: CCC[C@H](NC(=O)[C@@H]1C[C@@H]2CCCC[C@@H]2N1C(=O)[C@@H](NC(=O)[C@@H](NC(=O)c1cnc2ccccc2n1)C1CCCCC1)C(C)(C)C)C(=O)C(=O)NC1CC1 [Compound 35a]
- Ki [1]: < 500 nM
- IC50 [2, 3]: 1000 to 5000 nM

Compound: CCC[C@H](NC(=O)[C@@H]1C[C@@H]2CCCC[C@@H]2N1C(=O)[C@@H](NC(=O)[C@@H](NC(=O)c1ccc2cccnc2n1)C1CCCCC1)C(C)(C)C)C(=O)C(=O)NC1CC1 [Compound 36a]
- Ki [1]: < 500 nM
- IC50 [2, 3]: 1000 to 5000 nM

Compound: CCC[C@H](NC(=O)[C@@H]1C[C@@H]2CCCC[C@@H]2N1C(=O)[C@@H](NC(=O)[C@@H](NC(=O)c1cc(C)c(C(C)=O)[nH]1)C1CCCCC1)C(C)(C)C)C(=O)C(=O)NC1CC1 [Compound 37a]
- Ki [1]: < 500 nM
- IC50 [2, 3]: < 500 nM

Compound: CCC[C@H](NC(=O)[C@@H]1C[C@@H]2CCCC[C@@H]2N1C(=O)[C@@H](NC(=O)[C@@H](NC(=O)c1[nH]c2ccccc2c1C(C)=O)C1CCCCC1)C(C)(C)C)C(=O)C(=O)NC1CC1 [Compound 39a, 3-Acetyl-1H-indole-2-carboxylic acid (cyclohexyl-{1-[2-(1-cyclopropylaminooxalyl-butylcarbamoyl)-octahydro-indole-1-carbonyl]-2,2-dimethyl-propylcarbamoyl}-methyl)-amide]
- Ki [1]: < 500 nM
- IC50 [2, 3]: < 500 nM

Compound: CCC[C@H](NC(=O)[C@@H]1C[C@@H]2CCCC[C@@H]2N1C(=O)[C@@H](NC(=O)[C@@H](NC(=O)c1cc2cc(C(C)=O)ccc2[nH]1)C1CCCCC1)C(C)(C)C)C(=O)C(=O)NC1CC1 [Compound 40a, 5-Acetyl-1H-indole-2-carboxylic acid (cyclohexyl-{1-[2-(1-cyclopropylaminooxalyl-butylcarbamoyl)-octahydro-indole-1-carbonyl]-2,2-dimethyl-propylcarbamoyl}-methyl)-amide]
- Ki [1]: < 500 nM
- IC50 [2, 3]: < 500 nM

Compound: CCC[C@@H](NC(=O)[C@@H]1C[C@@H]2CCCC[C@@H]2N1C(=O)[C@@H](NC(=O)[C@@H](NC(=O)c1[nH]c(C)c(C)c1C(C)=O)C1CCCCC1)C(C)(C)C)C(=O)C(=O)NC1CC1 [Compound 41a]
- Ki [1]: 1000 to 5000 nM
- IC50 [2, 3]: < 500 nM

Compound: CCC[C@H](NC(=O)[C@@H]1C[C@@H]2CCCC[C@@H]2N1C(=O)[C@@H](NC(=O)[C@@H](NC(=O)c1cc(CC)c(C(C)=O)[nH]1)C1CCCCC1)C(C)(C)C)C(=O)C(=O)NC1CC1 [Compound 42a]
- Ki [1]: < 500 nM
- IC50 [2, 3]: < 500 nM
